Results published in US12116614B2, “Methods for determining antibiotic sensitivity” (priority 2020, dated 2024).
“Also recorded” adds a separate entry of the source.

Assays:
[1] = test system: NTHI (biofilm-resident, planktonic, anti-rsPilA NRel, anti-IHF NRel); assay: Antibiotic sensitivity of biofilm-resident, planktonic or NRel NTHI (2 h antibiotic exposure, CFU plating); format: cell-based, Nontypeable Haemophilus influenzae; conditions: for sensitivity to killing of anti-IHF NRel compared to planktonic NTHI / sensitivity to killing of anti-rsPilA NRel compared to planktonic NTHI: 2 h antibiotic at concentration killing ~20-25% of planktonic NTHI; for sensitivity to killing of time-matched anti-rsPilA NRel compared to planktonic NTHI: TMP-SMX 0.09 and 0.45 μg per ml, AMC 0.3 and 0.15 μg per ml
Description: Biofilms were established for 16 hr at 37° C. as described above. For biofilm-resident NTHI: biofilms were washed twice with DPBS and incubated in sBHI supplemented with the indicated antibiotics for at 37° C. 2 h. For planktonic NTHI: NTHI were incubated in sBHI for 3 hr as described above to reach log phase of growth, then diluted to the approximate concentration of either the anti-IHF (2×10^8 CFU/ml) or anti-rsPilA NRels (3×10^8 CFU/ml) to permit comparison between anti-IHF or anti-rsPilA NRels, (see FIG. 1). Planktonic NTHI were incubated with the indicated antibiotics at 37° C. for 2 hr. For NRel NTHI: anti-IHF or anti-rsPilA NRel, generated and collected as described above were incubated at 37° C. for 2 hr with the indicated antibiotics. CFU NTHI were determined by serial dilution and plating. Amoxicillin (Sigma-Aldrich, St. Louis, MO) and clavulanate (U.S. Pharmacopeia, Rockville, MD) were used at a ratio of 2:1. Trimethoprim (Sigma-Aldrich) and sulfamethoxazole (Santa Cruz Biotech, Dallas, TX) were used at a ratio of 1:5. […] All experiments were performed at least three times on separate days with two technical replicates for each treatment and control group.
To avoid excessive manipulation or dilution of NRel NTHI, and to permit direct comparison of equal numbers of planktonic and NRel, the planktonic cell density was adjusted to the same CFU per ml as the NRel population in each experiment as follows: NTHI were incubated statically to mid log phase growth then diluted to either 3×10^8 CFU/ml for comparison with anti-rsPilA NRel collected at 6 h, or to 2×10^8 CFU/ml for comparison with anti-IHF NRel collected at 15 min (see FIG. 1). Applicant then determined the concentrations of amoxicillin (Sigma-Aldrich, St. Louis, MO) and clavulanate (U.S. Pharmacopeia, Rockville, MD), or of trimethoprim (Sigma-Aldrich) and sulfamethoxazole (Santa Cruz Biotech, Dallas, TX) that killed approximately 25% of planktonic NTHI at each density. The same antibiotic concentrations were used for the anti-IHF or anti-rsPilA NRel, the density-matched (same CFU/ml) planktonic NTHI, and the adherent biofilm for each relevant experiment. […] Applicant then assessed killing of anti-IHF or anti-rsPilA NRel by concentrations of amoxicillin plus clavulanic acid (“augmentin”, AMC) or trimethoprim plus sulfamethoxazole (TMP-SMX) that killed 25% of the planktonic NTHI at the same density.
Anti-rsPilA or anti-IHF NRel were collected and sonicated as described above. After sonication for 2 min in a water bath sonicator to break up any NTHI aggregates, NRel or planktonic NTHI were incubated with the indicated antibiotics at 37° C. for 2 h, then serially diluted and plated on chocolate agar to quantify viable NTHI. To assay biofilm-resident NTHI, biofilms were established for 16 h at 37° C. as described above, washed twice with DPBS and incubated in sBHI supplemented with the indicated antibiotics at 37° C. After 2 h, biofilm-resident NTHI were collected by forceful pipetting, sonicated for 2 min and enumerated as described above. All experiments were performed at least three times on separate days with two or three technical replicates for each treatment and control group.

[2] = test system: NRel NTHI; conditions: released from dual-species biofilm by anti-rsPilA; cited from earlier work
[3] = test system: NRel versus Non-Associated NTHI
Excerpt: Applicant tested for this phenotype for either Amox/Clav or Trimethoprim/Sulfamethoxazole to determine when this sensitivity first appears and how long this NRel phenotype lasts (i.e. what is the window of opportunity in which to treat a patient with a biofilm disease?). Here, NRel are compared not to planktonic bacteria (due to their artificiality) but rather to “Non-Associated” bacteria which are those found in the supernatant above the biofilm but not associated with biofilm residence as this population represents those bacteria that naturally come off the biofilm or were never a part of the biofilm which is a normal aspect of the preferred bacterial lifestyle in nature. […] Box Legend: NRelAC—relative killing by Amox/Clav; NRel TS—relative killing by Trimethoprim/Sulfamethoxazole; open symbols are the same but for the non-associated populations of bacteria as now described in this legend. Data was generated with a murine anti-tip chimer antibody.
Box Legend: NRelAC—relative killing by Amox/Clav; NRel TS—relative killing by Trimethoprim/Sulfamethoxazole; open symbols are the same but for the non-associated populations of bacteria as now described in this legend. Data was generated with a murine anti-tip chimer antibody.

[4] = test system: NRel M. catarrhalis; conditions: released from dual-species biofilm by anti-rsPilA; cited from earlier work
[5] = after exposure to antibodies against rsPilA

Row | Compound | sensitivity of biofilm-resident NTHI to killing ([1]; 16 h biofilm, 2 h antibiotic) | sensitivity to killing of anti-IHF NRel compared to biofilm-resident NTHI ([1]; NRel after 15 min anti-IHF, 2 h antibiotic) | sensitivity to killing of anti-IHF NRel compared to planktonic NTHI ([1]; NRel after 15 min anti-IHF) | sensitivity to killing of anti-IHF NRel compared to planktonic NTHI ([1]; NRel after 15 min anti-IHF, listed as TMP-SMX) | sensitivity to killing of anti-rsPilA NRel compared to biofilm-resident NTHI ([1]; NRel after 6 h anti-rsPilA, 2 h antibiotic) | sensitivity to killing of anti-rsPilA NRel compared to planktonic NTHI ([1]; NRel after 6 h anti-rsPilA) | sensitivity to killing of anti-rsPilA NRel compared to planktonic NTHI ([1]; NRel after 6 h anti-rsPilA, listed as TMP-SMX) | sensitivity to killing of time-matched anti-rsPilA NRel compared to planktonic NTHI ([1]; NRel collected after 2 h, listed as TMP-SMX) | sensitivity to killing of time-matched anti-rsPilA NRel compared to planktonic NTHI ([1]; NRel collected after 2 h, listed as TMP/SMX) | sensitivity to killing of time-matched anti-IHF NRel compared to planktonic NTHI ([1]; NRel collected after 2 h, TMP-SMX 0.94 and 4.7 μg/ml, AMC 2.5 and 1.25 μg/ml) | susceptibility of NRel NTHI compared to those from growth on agar [2] | sensitivity of anti-DNABII NRel to killing compared to Non-Associated bacteria ([3]; NRel induced with murine anti-tip chimer antibody) | sensitivity of anti-rsPilA NRel to being killed compared to Non-Associated bacteria ([3]; NTHI released by antibody against rsPilA) | time at which greater sensitivity of anti-rsPilA NRel appears [3, 5] | time at which the sensitive phenotype of anti-rsPilA NRel remains [3, 5] [h] | susceptibility of NRel M. catarrhalis compared to those from growth on agar [4]
1 | trimethoprim and sulfamethoxazole [T/S] | minimal sensitivity | significantly more sensitive | only equally as sensitive | only equally as sensitive | significantly more sensitive | significantly more sensitive; also recorded: significantly greater | significantly greater | significantly more susceptible | significantly more sensitive | only equally as sensitive; also recorded: equally susceptible | more susceptible | as but not more sensitive | significantly greater sensitivity | approximately one | ≥ 6 | 
2 | CC[C@H]1OC(=O)[C@H](C)[C@@H](O[C@H]2C[C@@](C)(OC)[C@@H](O)[C@H](C)O2)[C@H](C)[C@@H](O[C@@H]2O[C@H](C)C[C@H](N(C)C)[C@H]2O)[C@](C)(OC)C[C@@H](C)C(=O)[C@H](C)[C@@H](O)[C@]1(C)O [clarithromycin] |  |  |  |  |  |  |  |  |  |  |  |  |  |  |  | more susceptible
